The target of the experiment is T1, AR protein in VCaP cells (Homo sapiens, UniProt P10275).
T1 construct: endogenous in cells; host or cells: VCaP cells
T1 sequence (P10275 1-920): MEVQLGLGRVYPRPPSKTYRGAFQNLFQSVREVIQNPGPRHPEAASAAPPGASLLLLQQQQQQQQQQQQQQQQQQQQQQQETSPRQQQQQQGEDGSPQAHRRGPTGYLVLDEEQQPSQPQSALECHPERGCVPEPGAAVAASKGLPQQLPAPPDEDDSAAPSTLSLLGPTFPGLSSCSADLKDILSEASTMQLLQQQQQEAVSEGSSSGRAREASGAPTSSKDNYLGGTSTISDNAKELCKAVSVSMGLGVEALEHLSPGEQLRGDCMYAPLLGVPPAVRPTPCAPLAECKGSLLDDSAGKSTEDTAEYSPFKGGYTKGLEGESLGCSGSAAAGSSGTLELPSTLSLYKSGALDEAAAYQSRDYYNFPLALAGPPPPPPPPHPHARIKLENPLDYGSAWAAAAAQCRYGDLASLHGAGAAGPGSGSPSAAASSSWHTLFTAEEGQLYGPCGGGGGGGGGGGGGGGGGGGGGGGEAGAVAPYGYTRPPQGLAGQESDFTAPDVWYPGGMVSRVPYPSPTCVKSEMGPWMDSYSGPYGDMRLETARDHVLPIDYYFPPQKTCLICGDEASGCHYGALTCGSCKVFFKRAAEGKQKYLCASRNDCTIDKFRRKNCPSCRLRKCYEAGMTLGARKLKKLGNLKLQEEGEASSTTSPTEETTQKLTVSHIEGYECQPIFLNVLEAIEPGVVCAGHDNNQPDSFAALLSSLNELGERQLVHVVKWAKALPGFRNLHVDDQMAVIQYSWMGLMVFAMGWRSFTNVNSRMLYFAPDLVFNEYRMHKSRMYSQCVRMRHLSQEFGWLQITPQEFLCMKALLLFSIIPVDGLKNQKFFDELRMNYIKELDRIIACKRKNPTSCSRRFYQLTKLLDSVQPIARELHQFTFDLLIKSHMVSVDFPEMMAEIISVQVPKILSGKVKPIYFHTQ
As to the kind of experiment: VCAP AR Degradation Assay. The format is cell-based. The following applies: 24 h, AR ELISA; for DC50: concentration at 50% of DMSO control (50% AR degradation); for Y: lowest measured AR level normalized to DMSO control. In a few lines:
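VCaP cells in DMEM with 8% FBS were treated 24 h at 37° C with a 10-point 1:3 series (top final 5 μM; 0.1% DMSO control). AR in lysates was measured by sandwich ELISA, normalized to DMSO as percent of control; DC50, EC50 and Ymin came from a four-parameter logistic fit.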

The values below come from patent US12103920B2, “Cereblon binding compounds, compositions thereof, and methods of treatment therewith” (Celgene Corporation, priority 2020, dated 2024).

Usually DC50 stands for the midpoint of the concentration-degradation curve. The low end stands for a more potent degrader, the high end for a less potent degrader.

Counter-ions that a name gives are not always drawn.

As for `C[C@@H]1C[C@@H](CCO[C@H]2CC[C@H](N3C(=S)N(c4cnc(C#N)c(C(F)(F)F)c4)C(=O)C3(C)C)CC2)C[C@H](C)N1CC(=O)Nc1cccc(NC2CCC(=O)NC2=O)c1` (stereo partly drawn) [Cmpd 22, 2-((2S,4s,6R)-4-(2-(((trans)-4-(3-(6-Cyano-5-(trifluoromethyl)pyridin-3-yl)-5,5-dimethyl-4-oxo-2-thioxoimidazolidin-1-yl)cyclohexyl)oxy)ethyl)-2,6-dimethylpiperidin-1-yl)-N-(3-((2,6-dioxopiperidin-3-yl)amino)phenyl)acetamide], the DC50 was at most 5 nM and the Y result was “* (0<Y≤15%)”.

For `C[C@@H]1C[C@@H](CCO[C@H]2CC[C@H](N3C(=S)N(c4ccc(C#N)c(C(F)(F)F)c4)C(=O)C3(C)C)CC2)C[C@H](C)N1CC(=O)Nc1cccc(NC2CCC(=O)NC2=O)c1` (stereo partly drawn) [Cmpd 15, 2-((2R,4s,6S)-4-(2-((trans-4-(3-(4-Cyano-3-(trifluoromethyl)phenyl)-5,5-dimethyl-4-oxo-2-thioxoimidazolidin-1-yl)cyclohexyl)oxy)ethyl)-2,6-dimethylpiperidin-1-yl)-N-(3-((2,6-dioxopiperidin-3-yl)amino)phenyl)acetamide hydrochloride], the half-maximal degradation concentration (DC50) lay in the range of 5 to 10 nM and the Y result is given as “* (0<Y≤15%)”.
